We go through seven molecules from ChEMBL document CHEMBL1136408, “Structure-activity and crystallographic analysis of benzophenone derivatives-the potential anticancer agents” (Bioorg Med Chem Lett, 2003).

Experiment [1] relates to KB 3-1. The experiment in a line: Compound was tested for cell arrest at G2/M phase at 50 nM concentration in KB human cancer cells. It is filed as functional. Particulars: read-out: Inhibition.
The test system of a further experiment is CPT30 cell line. As to the kind of experiment: Inhibitory concentration against camptothecin (CPT) resistant cell line using tetrazolium dye reduction assay (MTT). The class given is functional, cell-based. As to conditions: Homo sapiens.
The subject of experiment [2] is KB 3-1. As to the kind of experiment: Compound was tested for cell arrest at G2/M phase at 100 nM concentration in KB human cancer cells. The class given is functional. As to conditions: read-out: Inhibition.
Experiment [3] relates to KB 3-1. The experiment in a line: Compound was tested for cell arrest at Go/G1 phase at 100 nM concentration in KB human cancer cells. Particulars: read-out: Inhibition. The class given is functional.
For experiment [4], the system named is KB 3-1. The experiment in a line: Compound was tested for cell arrest at Go/G1 phase at 50 nM concentration in KB human cancer cells. The class given is functional. Particulars: read-out: Inhibition.
Experiment [5] has as its system KB 3-1. The experiment in a line: Compound was tested for cell arrest at sub-G1 phase at 50 nM concentration in KB human cancer cells. Particulars: read-out: Inhibition. The class given is functional.
The subject of experiment [6] is KB. The experiment in a line: Inhibitory concentration against vincristine-resistant cell line (KB-Vin 10) using tetrazolium dye reduction assay (MTT). It is filed as functional, cell-based. Particulars: Homo sapiens.
In experiment [7] the test system is KB 3-1. The experiment in a line: Compound was tested for cell arrest at sub-G1 phase at 25 nM concentration in KB human cancer cells. The class given is functional. Particulars: for Percent of cells arrested in sub-G1 phase at 0.025 µM: Homo sapiens, KB 3-1, read-out: Inhibition.
For a further experiment, the system named is HONE1 cell line. As to the kind of experiment: Inhibitory concentration against human NPC cancer cell line using tetrazolium dye reduction assay (MTT). The class given is functional, cell-based.
Experiment [8] has as its system KB. The experiment in a line: Inhibitory concentration against VP16 resistant cell line (KB-7D) using tetrazolium dye reduction assay (MTT). Particulars: Homo sapiens. It is filed as functional, cell-based.
The test system of experiment [9] is KB 3-1. The experiment in a line: Compound was tested for cell arrest at sub-G1 phase at 100 nM concentration in KB human cancer cells. It is filed as functional. As to conditions: read-out: Inhibition.
The subject of experiment [10] is KB 3-1. The experiment in a line: Compound was tested for cell arrest at S phase at 25 nM concentration in KB human cancer cells. The class given is functional. Particulars: read-out: Inhibition.
In experiment [11] the test system is KB 3-1. As to the kind of experiment: Compound was tested for cell arrest at Go/G1 phase at 25 nM concentration in KB human cancer cells. The class given is functional. Particulars: read-out: Inhibition.
In experiment [12] the test system is KB 3-1. The experiment in a line: Compound was tested for cell arrest at S phase at 100 nM concentration in KB human cancer cells. Particulars: read-out: Inhibition. The class given is functional.
Experiment [13] concerns KB 3-1. As to the kind of experiment: Compound was tested for cell arrest at S phase at 50 nM concentration in KB human cancer cells. The class given is functional. Particulars: read-out: Inhibition.
For experiment [14], the system named is KB. The experiment in a line: Inhibitory concentration against camptothecin (CPT) resistant cell line (KB-100) using tetrazolium dye reduction assay (MTT). It is filed as functional, cell-based. Particulars: Homo sapiens.
Experiment [15] has as its system KB. As to the kind of experiment: Inhibitory concentration against taxol resistant cell line (KBs5) at a concentration of 50 nM using tetrazolium dye reduction assay (MTT). It is filed as functional, cell-based. Particulars: Homo sapiens.
The subject of experiment [16] is KB 3-1. The experiment in a line: Compound was tested for cell arrest at G2/M phase at 25 nM concentration in KB human cancer cells. It is filed as functional. Particulars: read-out: Inhibition.
In experiment [17] the test system is KB. As to the kind of experiment: Inhibitory concentration against human oral cancer cell line (KB) using tetrazolium dye reduction assay (MTT). The class given is functional, cell-based.

Take `COc1ccc(C(=O)c2cc(OC)c(OC)c(OC)c2)cc1O` [PHENSTATIN]: the Cells arrested in G2/M phase (%) at 0.05 µM in the experiment on KB 3-1 [1] is 63.9%. The half-inhibitory concentration (IC50) (as a rule, the concentration needed to halve the response being measured) worked out at 37.2 nM in the experiment with CPT30 cell line; 34.1 nM with KB [6]; 138 nM in the experiment on HONE1 cell line; 180 nM in the experiment with KB [8]; 34.8 nM in the experiment with KB [14]; 184 nM with KB [15]. The molecule also showed a concentration for half-maximal inhibition (IC50) in the experiment with KB [17] of 129 nM. In addition, the percent of cells arrested in G2/M phase at 0.1 µM in the experiment with KB 3-1 [2] amounted to 73.5%. Also, the percent cells arrested in G0/G1 phase at 0.1 µM with KB 3-1 [3] was 5.6%. Moreover, the % cells in G0/G1 phase at 0.05 µM in the experiment with KB 3-1 [4] was 7.6%. Besides, the Cells in sub-G1 phase at 0.05 µM in the experiment with KB 3-1 [5] was 17.8%. The Percent of cells arrested in sub-G1 phase at 0.025 µM in the experiment with KB 3-1 [7] stood at 32.9%. For the same molecule, the Percent of cells in sub-G1 phase at 0.1 µM in the experiment on KB 3-1 [9] turned out to be 13%. In the experiment on KB 3-1 [10], the Cells arrested in S phase (%) at 0.025 µM amounted to 9.9%. The percent of cells in G0/G1 phase at 0.025 µM with KB 3-1 [11] amounted to 17.6%. Further, the Cells arrested in S phase at 0.1 µM in the experiment on KB 3-1 [12] amounted to 7.7%. Moreover, in the experiment with KB 3-1 [13], the percent of cells arrested in S phase at 0.05 µM was determined as 10.5%. The percent of cells arrested in G2/M phase at 0.025 µM with KB 3-1 [16] came to 39.6%.
In the case of `COc1cc(C(=O)c2cc(Cl)ccc2O)cc(OC)c1OC`, the Cells arrested in G2/M phase (%) at 0.05 µM in the experiment with KB 3-1 [1] worked out at 18.9%. Besides, the IC50 in the experiment on CPT30 cell line stood at 5000 nM; in the experiment with KB [6], 8340 nM; in the experiment on HONE1 cell line, 6110 nM; in the experiment with KB [8], 5450 nM; in the experiment with KB [14], 4070 nM; with KB [15], 4550 nM. Half-maximal inhibition in the experiment on KB [17] (IC50) was put at 5460 nM. Besides, the percent of cells arrested in G2/M phase at 0.1 µM in the experiment on KB 3-1 [2] amounted to 16%. Moreover, the percent cells arrested in G0/G1 phase at 0.1 µM in the experiment with KB 3-1 [3] turned out to be 45.4%. In addition, in the experiment on KB 3-1 [4], the % cells in G0/G1 phase at 0.05 µM was 59.4%. Also, in the experiment with KB 3-1 [5], the Cells in sub-G1 phase at 0.05 µM is 5.7%. Further, the Percent of cells arrested in sub-G1 phase at 0.025 µM in the experiment with KB 3-1 [7] was found to be 5.3%. Moreover, in the experiment with KB 3-1 [9], the Percent of cells in sub-G1 phase at 0.1 µM was determined as 26.5%. Besides, the Cells arrested in S phase (%) at 0.025 µM in the experiment with KB 3-1 [10] turned out to be 14.6%. The percent of cells in G0/G1 phase at 0.025 µM with KB 3-1 [11] came out at 61.8%. For the same molecule, the Cells arrested in S phase at 0.1 µM in the experiment on KB 3-1 [12] stood at 11.8%. The percent of cells arrested in S phase at 0.05 µM in the experiment with KB 3-1 [13] came out at 15.9%. Besides, the percent of cells arrested in G2/M phase at 0.025 µM with KB 3-1 [16] is 18.3%.
`COc1ccc(/C=C\c2cc(OC)c(OC)c(OC)c2)cc1O` [COMBRETASTATIN A4]: in the experiment on KB 3-1 [1], the Cells arrested in G2/M phase (%) at 0.05 µM came to 63.2%. In addition, the IC50 stood at 6.9 nM in the experiment on CPT30 cell line; 9.5 nM in the experiment on KB [6]; 6.5 nM in the experiment on HONE1 cell line; 7.9 nM in the experiment with KB [8]; 7.3 nM with KB [14]; 7 nM in the experiment with KB [15]. The same molecule showed an IC50 in the experiment with KB [17] of 6.2 nM. In the experiment with KB 3-1 [2], the percent of cells arrested in G2/M phase at 0.1 µM worked out at 72.3%. In addition, the percent cells arrested in G0/G1 phase at 0.1 µM in the experiment on KB 3-1 [3] worked out at 5.2%. The % cells in G0/G1 phase at 0.05 µM with KB 3-1 [4] came out at 9.3%. In the experiment with KB 3-1 [5], the Cells in sub-G1 phase at 0.05 µM amounted to 16.8%. Also, the Percent of cells arrested in sub-G1 phase at 0.025 µM in the experiment with KB 3-1 [7] came to 18.3%. Further, the Percent of cells in sub-G1 phase at 0.1 µM with KB 3-1 [9] is 11.6%. Also, the Cells arrested in S phase (%) at 0.025 µM in the experiment on KB 3-1 [10] was 11%. In addition, the percent of cells in G0/G1 phase at 0.025 µM in the experiment with KB 3-1 [11] was determined as 8.9%. Further, in the experiment with KB 3-1 [12], the Cells arrested in S phase at 0.1 µM stood at 10.6%. Also, the percent of cells arrested in S phase at 0.05 µM with KB 3-1 [13] turned out to be 10.6%. For the same molecule, the percent of cells arrested in G2/M phase at 0.025 µM in the experiment with KB 3-1 [16] is 61.6%.
Turning to `COc1ccc(N)c(C(=O)c2cc(OC)c(OC)c(OC)c2)c1`, the half-maximal inhibitory concentration (IC50) in the experiment on CPT30 cell line was found to be 41 nM; in the experiment with KB [6] it was 48.6 nM; in the experiment with HONE1 cell line, 59.2 nM; in the experiment on KB [8], 38.1 nM; in the experiment with KB [14] it was 22.5 nM; with KB [15] it was 34.7 nM. The molecule also showed an IC50 with KB [17] of 38.5 nM.
For the molecule `COc1cc(C(=O)c2cc(Cl)ccc2N)cc(OC)c1OC`, the Cells arrested in G2/M phase (%) at 0.05 µM in the experiment on KB 3-1 [1] turned out to be 17.3%. Also, the half-inhibitory concentration (IC50) came out at 60.3 nM with CPT30 cell line; 97.2 nM with KB [6]; 64.5 nM with HONE1 cell line; 104 nM in the experiment with KB [8]; 156 nM in the experiment with KB [14]; 71 nM in the experiment on KB [15]. The molecule further displayed a half-maximal inhibitory concentration (IC50) in the experiment on KB [17] of 90.4 nM. In the experiment on KB 3-1 [2], the percent of cells arrested in G2/M phase at 0.1 µM turned out to be 73.2%. In addition, the percent cells arrested in G0/G1 phase at 0.1 µM with KB 3-1 [3] was determined as 5.7%. Moreover, in the experiment on KB 3-1 [4], the % cells in G0/G1 phase at 0.05 µM is 61.7%. Also, in the experiment on KB 3-1 [5], the Cells in sub-G1 phase at 0.05 µM was found to be 6.4%. The Percent of cells arrested in sub-G1 phase with KB 3-1 [7] is 6.5%. In the experiment on KB 3-1 [9], the Percent of cells in sub-G1 phase at 0.1 µM came out at 13.9%. Moreover, the Cells arrested in S phase (%) at 0.025 µM in the experiment on KB 3-1 [10] was 14.3%. In addition, the percent of cells in G0/G1 phase at 0.025 µM in the experiment on KB 3-1 [11] came out at 61.7%. Besides, in the experiment on KB 3-1 [12], the Cells arrested in S phase at 0.1 µM came out at 7.1%. The percent of cells arrested in S phase at 0.05 µM in the experiment on KB 3-1 [13] was 14.6%. In addition, the percent of cells arrested in G2/M phase at 0.025 µM in the experiment with KB 3-1 [16] turned out to be 17.3%.
In the case of `CNc1ccc(Cl)cc1C(=O)c1cc(OC)c(OC)c(OC)c1`, the 50% inhibitory concentration (IC50) in the experiment with CPT30 cell line amounted to 5350 nM; in the experiment with KB [6], 5850 nM; in the experiment with HONE1 cell line it was 5140 nM; in the experiment with KB [8], 5410 nM; with KB [14] it was 7160 nM; with KB [15], 2290 nM. Further, the half-inhibitory concentration (IC50) in the experiment with KB [17] stood at 6080 nM.
`COc1ccc(C(=O)c2cc(OC)c(OC)c(OC)c2)c(N)c1`: the 50% inhibitory concentration (IC50) in the experiment on CPT30 cell line turned out to be 37.3 nM; in the experiment with KB [6] it was 45.8 nM; in the experiment on HONE1 cell line, 35.8 nM; with KB [8], 29.3 nM; in the experiment with KB [14], 18.9 nM; in the experiment with KB [15], 25.6 nM. Also, half-maximal inhibition with KB [17] (IC50) was put at 25.8 nM.
